Data reported in US8440724B2, “Inhibiting neurotransmitter reuptake” (Mayo Foundation for Medical Education and Research, priority 2008, dated 2013).

What was measured:
[1] = test system: rat 5-HT, NE and DA transport, synaptosomal preparations; assay: Rat brain synaptosomal transport: rank order of potency; type: biochemical; settings: from Ki values; S = 5HT, N = NE, D = DA
Experimental: The dissected tissues were separately homogenized in 20 volumes (cortical) or 40 volumes (striatal) of ice-cold, oxygenated HEPES buffer 0.32 M sucrose containing 11 mM glucose (pH 7.4) in a glass Potter-Elvehjem homogenizer with Teflon® pestle (8 strokes, 900 rpm). The homogenates were centrifuged at 1,000×g for 10 minutes. The resulting supernatant was decanted and further centrifuged at 20,000×g for 20 minutes at 4° C. […] The synaptosomal protein concentration was determined by using the BCA assay (Pierce Biotechnology Inc, Rockford, Ill.), according to the manufacturer's instructions. Synaptosomal protein (1.0-2.5 mg) was suspended in 1 mL oxygenated incubation buffer as defined above. Test amine compound was pre-incubated with the synaptosomal preparation for 30 minutes at 37° C. in a shaking water bath (80 oscillations/minute).

Male Sprague-Dawley rats = assay: Forced swim test in rats; type: in vivo, rat; settings: 15 mg/kg IP, FIG. 12A
Experimental: When rats are placed in a cylinder of water from which they cannot escape, they will remain immobile in the water for the majority of the test.
Water was changed between trials, and the procedure involved a pretest and a 5-minute test separated by 24 hours. During the pretest, rats (adapted to the experimental room for no less than one hour) were placed in the cylinder for 15 minutes. Following this initial exposure, the rats were dried with towels and transferred to a “drying cage” situated under a warming lamp. […] The following day, rats were transferred to the experimental room and acclimated for at least one hour.
The rat was considered immobile when floating motionless or making only those movements necessary to keep its head above the surface of the water. Scores for each behavior (swimming or immobility) were expressed as total counts per 5-minute session. Statistical analysis was performed using ANOVA followed by the Tukey test for post-hoc comparisons.

mice = assay: Locomotor activity in motility chamber, mice; type: in vivo, mouse; settings: 15 mg/kg IP, 10 minute intervals for 3 hours, FIG. 11
hSERT, hNET, hDAT = assay: Human transporter binding: rank order and range of potency over the three transporters; settings: from KD values
Source text: The program was modified to calculate the Hill coefficient (nH). Data are presented as geometric mean±S.E.M. of at least three independent experiments. One-component models and two-component models were compared using the root mean square error of each fit and the F test.

male C57BL/6J mice = assay: Tail suspension test (TST) in mice; type: in vivo, mouse; settings: mice, 15 mg/kg IP, FIG. 10A
Experimental: When mice are suspended by their tail, there is an initial period of agitation, followed by immobility. This test identifies antidepressant compounds, which decrease the duration of immobility.
Test compounds were prepared by formulating the compounds with a pharmaceutically acceptable carrier such as saline. […] Each mouse was then subjected to the tail-suspension test (TST). Each mouse (n>3) was suspended by its tail 45 cm above the table top with the use of adhesive tape placed 1 cm from the tip of its tail. Behavior was scored every 5 seconds throughout the 6-minute test as either mobile or immobile (FIG. 10A-D) or total duration of immobility during the 6-minute test (FIGS. 10E and 10H). Mice were considered immobile only when hanging passively and completely motionless. Scores for each behavior were expressed as total counts per 6-minute session.

For `CN(C)CCCN1c2ccccc2CCc2ccccc21` [Imipramine, reference compound], the “Potency (rank order, transport into rat brain synaptosomal preparations)” value [1] was “N > S > D”, the “Immobility in forced swim test vs saline” value (Male Sprague-Dawley rats) was “statistically (P<0.04) less immobility” and the “Swimming in forced swim test vs saline” value (Male Sprague-Dawley rats) was “statistically (P<0.04) more swimming behavior”. The “Effect on locomotor activity” value (mice) was “Only d-amphetamine caused a significant effect on locomotor activity”, the “Potency (rank-order of potency of binding; S = hSERT, N = hNET, D = hDAT)” value (hSERT, hNET, hDAT) was “S > N > D” and the “Mobility in TST (counts per 6-minute session) vs saline” value (male C57BL/6J mice; 30 minutes before testing) was “significantly (P<0.02) increased mobility”. For the same compound, the “Immobility in TST (counts per 6-minute session) vs saline” value (male C57BL/6J mice) was “significantly (P<0.02) reduced immobility”.
